# Test results published in paper PMC2774621, “Homogenous Fluorescent Assays for Characterizing Small-Molecule Activators of AMP-Activated Protein Kinase (AMPK)” (Current Chemical Genomics, 2008).
# Key:
# AMPK α1β1γ1 = biological target: T1, AMPK α1β1γ1 (Homo sapiens, UniProt P54619+Q13131); test: CHEF-based activity assay (Omnia S/T23 peptide); format: biochemical; conditions: ATP 40 µM, substrate 8 µM, 30°C
# T1 construct: made in house; host or cells: Sf9 insect cells (baculovirus)
# Method: Kinase reactions were performed in a 50 µL reaction volume at 30°C in 96-well half-area plate (Corning Model 3992) using the same assay buffer as the radiometric assays. Inhibitors and activators were prepared as described for the radiometric assays. Assays were performed by mixing 10 µL enzyme solution, 10 µL of substrate peptide solution, 10 µL of AMP solution (or H2O for the activator experiments), and 10 µL of inhibitor or activator solution. The reactions were initiated by adding 10 µL of ATP solution. The final concentration of Omnia™ S/T23 peptide substrate in the reaction was 8 µM. AMPK α1β1γ1 was used at 320 ng/mL (1.7 nM), at an ATP concentration of 40 µM. AMPK α2β1γ1 was used at 640 ng/mL (3.4 nM), at an ATP concentration of 120 µM. The concentration of AMP in the inhibitor titrations was 80 µM. Immediately after addition of ATP the assay plate was placed into a fluorescence plate reader (Molecular Devices SpectraMax M5, pre-warmed to 30°C). The plates were read for 60 minutes using an excitation wavelength of 360 nm and emission wavelength of 485 nm. The reaction rates were calculated as the change in fluorescence intensity over time (Rfu/sec) over the period where the assay response was linear.
# Data analysis and curve-fitting was performed using GraphPad Prism software (GraphPad Software, Inc, San Diego CA).
# [1] = tested on: partially purified human AMPK; parameters: method as in PMID 8185610; conditions: cited from earlier work
# T1 sequence (Q13131 whole entry): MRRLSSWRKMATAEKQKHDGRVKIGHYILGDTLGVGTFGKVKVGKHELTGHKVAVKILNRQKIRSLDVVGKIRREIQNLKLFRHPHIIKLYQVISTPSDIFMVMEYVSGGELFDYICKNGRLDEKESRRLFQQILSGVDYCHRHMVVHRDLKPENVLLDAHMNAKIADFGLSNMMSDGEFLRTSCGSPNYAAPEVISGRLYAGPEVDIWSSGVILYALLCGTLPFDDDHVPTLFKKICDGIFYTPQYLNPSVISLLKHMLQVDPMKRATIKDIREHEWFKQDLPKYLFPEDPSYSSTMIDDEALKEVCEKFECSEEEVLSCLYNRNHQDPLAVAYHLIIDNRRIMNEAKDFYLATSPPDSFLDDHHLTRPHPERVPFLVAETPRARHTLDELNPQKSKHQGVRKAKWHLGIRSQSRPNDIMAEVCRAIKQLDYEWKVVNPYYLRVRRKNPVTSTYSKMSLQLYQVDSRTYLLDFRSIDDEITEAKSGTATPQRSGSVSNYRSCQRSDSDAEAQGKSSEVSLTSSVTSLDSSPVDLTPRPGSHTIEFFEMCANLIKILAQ
# T1 sequence (Q9Y478 whole entry partner): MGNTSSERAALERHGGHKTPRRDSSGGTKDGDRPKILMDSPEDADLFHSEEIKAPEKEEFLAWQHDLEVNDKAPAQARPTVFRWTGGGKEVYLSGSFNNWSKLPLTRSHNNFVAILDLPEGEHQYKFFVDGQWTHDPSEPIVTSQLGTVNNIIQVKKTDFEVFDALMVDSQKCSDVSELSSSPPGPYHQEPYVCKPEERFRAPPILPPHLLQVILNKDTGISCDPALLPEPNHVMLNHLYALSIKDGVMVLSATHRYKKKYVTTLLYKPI
# T1 sequence (P54619 whole entry): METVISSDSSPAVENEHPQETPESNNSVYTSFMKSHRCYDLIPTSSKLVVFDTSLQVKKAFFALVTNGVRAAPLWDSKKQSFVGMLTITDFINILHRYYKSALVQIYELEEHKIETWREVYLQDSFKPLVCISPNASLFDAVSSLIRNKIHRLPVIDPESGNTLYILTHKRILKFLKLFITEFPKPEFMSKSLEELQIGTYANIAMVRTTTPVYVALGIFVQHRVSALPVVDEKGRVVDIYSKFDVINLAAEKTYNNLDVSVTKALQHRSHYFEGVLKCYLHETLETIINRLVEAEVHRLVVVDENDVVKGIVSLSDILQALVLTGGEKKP
compound,measurement,setting,value
"Nc1ncnc2c1ncn2[C@@H]1O[C@H](COP(O)(O)=S)[C@@H](O)[C@H]1O [ATMP, adenosine 5′-O-thiomonophosphate]",Max. fold-activation,AMPK α1β1γ1,1.8 fold
same,EC50,AMPK α1β1γ1; read-out: Activator EC50,250 nM
same,fold stimulation (maximal extent of activation),[1],2.5 fold
